Reference: US20250332149A1, “PIPERIDINE COMPOUNDS AND PHARMACEUTICAL COMPOSITIONS” (Lumos Pharma, Inc., priority 2024, published 2025)
Read-outs that look alike come from different tables or passages of the source.

Experiment: Phase 1 study Part 1: plasma PK and relative bioavailability of LUM-201 tablets vs capsule
Assay type: in vivo, human
Details: for decrease of DNCmax as compared to the 90 mg tablet dose, fasted: statistically significant; for Tmax / AUC(0-inf) / AUC(0-t) / Cmax / half-life: human, plasma
Excerpt: This study in healthy adult subjects was designed to establish the pharmacokinetic (PK) and pharmacodynamic (PD) profiles for the orally administered test product (coated mini-tablets in a capsule) and reference product (mini-tablet) to evaluate relative bioavailability in Part 1 and to evaluate the food effect on the bioavailability of test product (capsule only) in Part 2.
This was a single center, open-label, randomized, Phase 1 study in healthy adult subjects. This study consisted of 2 parts: Part 1 was a 4-sequence, 4-treatment, 4 Treatment Periods, crossover study to determine the relative bioavailability of current tablets to new capsule formulations of LUM-201; Part 2 was a 2-sequence, 2-treatment, 2 Treatment Periods, crossover study to evaluate the food effect on the bioavailability of the new capsule formulation of LUM-201. An individual subject was allowed to participate in only 1 part (Part 1 or Part 2) of the study. Forty subjects were planned and enrolled in this study. • Part 1: A total of 28 subjects were planned and enrolled in Part 1. Part 1 consisted of 4 sequences, each having 4 Treatment Periods enrolling 7 subjects (1:1:1:1 ratio). During Treatment Periods 1 through 4, each subject received 4 single oral doses of LUM-201 drug product in a randomized, crossover order. • Part 2: A total of 12 subjects were planned and enrolled in Part 2. Part 2 consisted of 2 sequences, each having 2 Treatment Periods enrolling 6 subjects (1:1 ratio). Each subject received a single oral dose of LUM-201 at each Treatment Period. During Treatment Periods 1 and 2, each subject received 2 single oral doses of LUM-201 in a randomized, crossover order. • On Day 1 of Treatment Period 1, subjects were administered the assigned treatment (A or B) as randomized, followed by a washout of at least 3 days between Treatment Periods 1 and 2. Subjects stayed in-house (not discharged) between the Treatment Periods. • Treatment A was dosed at 85.3 mg capsule formulation of LUM-201 (intact capsule consumed unopened) consumed while subject was in a fasted state with 240 mL of water. • Treatment B was dosed at 85.3 mg capsule formulation of LUM-201 (intact capsule consumed unopened) consumed 30 minutes after start of a high-fat meal with 240 mL of water. • Subjects were discharged from the study center on the morning of Day 3 of Treatment Period 2 after the scheduled study assessments had been completed.
• Treatment A (reference): five 18 mg oral tablets of LUM-201 were administered under fasted state with 240 mL of water. • Treatment B (test): a single 85.3 mg dose of oral capsule formulation of LUM-201 was administered as a whole capsule under fasted state with 240 mL of water. • Treatment C (test): a single 85.3 mg dose of oral capsule formulation of LUM-201 was administered by dosing capsule contents (dry) under fasted state with 240 mL of water. • Treatment D (test): a single 85.3 mg dose of oral capsule formulation of LUM-201 was mixed (capsule contents) with banana puree (2 teaspoons), followed by 240 mL of water and was ingested within 5 minutes under fasted state (Note: Banana Puree, single serve cup was used [118.3 mL]). […]

[1] = Part 1, Treatment D (test): 85.3 mg capsule contents in banana puree, oral, fasted
[2] = Part 1, Treatment D (test): 85.3 mg capsule contents in banana puree, oral, fasted, ANOVA
[3] = test Treatment B (85.3 mg whole capsule, fasted) to reference Treatment A (90 mg tablets, fasted)
[4] = test Treatment C (85.3 mg capsule contents in dosing cup, fasted) to reference Treatment A (90 mg tablets, fasted)
[5] = test Treatment D (85.3 mg capsule contents in banana puree) to reference Treatment A (90 mg tablets, fasted)

SMILES: CC(C)(N)C(=O)N[C@H](COCc1ccccc1)C(=O)N1CCC2(CC1)CN(S(C)(=O)=O)c1ccccc12 [LUM-201, N-[1(R)-[(1,2-dihydro-1-methanesulfonylspiro[3H-indole-3,4′-piperdin]-yl)carbonyl]-2-(phenylmethyloxy)ethyl]-2-amino-2-methylpropanamide methanesulfonate]
- DNAUC0-last, Geometric Mean [1]: 6.276 ng·h/mL/mg
- DNCmax, Arithmetic Mean [1]: 1.422 ng/mL/mg
- DNCmax, Geometric Mean [1]: 1.087 ng/mL/mg
- t1/2, Geometric Mean [1]: 8.09 h
- tlag, Median [1]: 0 h
- tlast, Median [1]: 48.02 h
- λz, Arithmetic Mean [1]: 0.0872 h⁻¹
- λz, Geometric Mean [1]: 0.0856 h⁻¹
- DNAUC0-inf, GLS Mean [2]: 6.38 ng·h/mL/mg
- DNAUC0-last, GLS Mean [2]: 6.26 ng·h/mL/mg
- DNCmax, GLS Mean [2]: 1.08 ng/mL/mg
- decrease of DNCmax as compared to the 90 mg tablet dose, fasted (Treatment B: 85.3 mg whole capsule, fasted): 14.1%
- decrease of DNCmax as compared to the 90 mg tablet dose, fasted (Treatment C: 85.3 mg capsule contents in a dosing cup, fasted): 20.4%
- decrease of DNCmax as compared to the 90 mg tablet dose, fasted (Treatment D: 85.3 mg capsule contents in banana puree): 14.4%
- Tmax (oral, Part 1, post-dose, Treatments A to D, read-out: median tmax, range over all four treatments): 0.782 to 1.23 h
- AUC(0-inf) (po, 85.3 mg, Part 1, Treatment B (test): 85.3 mg whole capsule, oral, fasted, read-out: AUC0-inf, Arithmetic Mean): 566 ng·h/mL
- AUC(0-inf) (po, 85.3 mg, Part 1, Treatment B (test): 85.3 mg whole capsule, oral, fasted, read-out: AUC0-inf, Geometric Mean): 512 ng·h/mL
- AUC(0-t) (po, 85.3 mg, Part 1, Treatment B (test): 85.3 mg whole capsule, oral, fasted, read-out: AUC0-last, Arithmetic Mean): 557 ng·h/mL
- AUC(0-t) (po, 85.3 mg, Part 1, Treatment B (test): 85.3 mg whole capsule, oral, fasted, read-out: AUC0-last, Geometric Mean): 504 ng·h/mL
- Cmax (po, 85.3 mg, Part 1, Treatment B (test): 85.3 mg whole capsule, oral, fasted, read-out: Cmax, Arithmetic Mean): 115 ng/mL
- Cmax (po, 85.3 mg, Part 1, Treatment B (test): 85.3 mg whole capsule, oral, fasted, read-out: Cmax, Geometric Mean): 93.2 ng/mL
- half-life (po, 85.3 mg, Part 1, Treatment B (test): 85.3 mg whole capsule, oral, fasted, read-out: t1/2, Arithmetic Mean (converted)): 8.19 h
- half-life (po, 85.3 mg, Part 1, Treatment B (test): 85.3 mg whole capsule, oral, fasted, read-out: t1/2, Geometric Mean (converted)): 8.06 h
- Tmax (po, 85.3 mg, Part 1, Treatment B (test): 85.3 mg whole capsule, oral, fasted, read-out: tmax, Median): 1.23 h
- AUC(0-inf) (po, 85.3 mg, Part 1, Treatment C (test): 85.3 mg capsule contents (dry), oral, fasted, read-out: AUC0-inf, Arithmetic Mean): 583 ng·h/mL
- AUC(0-inf) (po, 85.3 mg, Part 1, Treatment C (test): 85.3 mg capsule contents (dry), oral, fasted, read-out: AUC0-inf, Geometric Mean): 534 ng·h/mL
- AUC(0-t) (po, 85.3 mg, Part 1, Treatment C (test): 85.3 mg capsule contents (dry), oral, fasted, read-out: AUC0-last, Arithmetic Mean): 573 ng·h/mL
- AUC(0-t) (po, 85.3 mg, Part 1, Treatment C (test): 85.3 mg capsule contents (dry), oral, fasted, read-out: AUC0-last, Geometric Mean): 524 ng·h/mL
- Cmax (po, 85.3 mg, Part 1, Treatment C (test): 85.3 mg capsule contents (dry), oral, fasted, read-out: Cmax, Arithmetic Mean): 98.9 ng/mL
- Cmax (po, 85.3 mg, Part 1, Treatment C (test): 85.3 mg capsule contents (dry), oral, fasted, read-out: Cmax, Geometric Mean): 86.5 ng/mL
- half-life (po, 85.3 mg, Part 1, Treatment C (test): 85.3 mg capsule contents (dry), oral, fasted, read-out: t1/2, Arithmetic Mean (converted)): 8.58 h
- half-life (po, 85.3 mg, Part 1, Treatment C (test): 85.3 mg capsule contents (dry), oral, fasted, read-out: t1/2, Geometric Mean (converted)): 8.47 h
- Tmax (po, 85.3 mg, Part 1, Treatment C (test): 85.3 mg capsule contents (dry), oral, fasted, read-out: tmax, Median): 1.12 h
- AUC(0-inf) (po, 85.3 mg, Part 1, Treatment D (test): 85.3 mg capsule contents in banana puree, oral, fasted, read-out: AUC0-inf, Arithmetic Mean): 629 ng·h/mL
- AUC(0-inf) (po, 85.3 mg, Part 1, Treatment D (test): 85.3 mg capsule contents in banana puree, oral, fasted, read-out: AUC0-inf, Geometric Mean): 546 ng·h/mL
- AUC(0-t) (po, 85.3 mg, Part 1, Treatment D (test): 85.3 mg capsule contents in banana puree, oral, fasted, read-out: AUC0-last, Arithmetic Mean): 619 ng·h/mL
- AUC(0-t) (po, 85.3 mg, Part 1, Treatment D (test): 85.3 mg capsule contents in banana puree, oral, fasted, read-out: AUC0-last, Geometric Mean): 535 ng·h/mL
- Cmax (po, 85.3 mg, Part 1, Treatment D (test): 85.3 mg capsule contents in banana puree, oral, fasted, read-out: Cmax, Arithmetic Mean): 121 ng/mL
- Cmax (po, 85.3 mg, Part 1, Treatment D (test): 85.3 mg capsule contents in banana puree, oral, fasted, read-out: Cmax, Geometric Mean): 92.7 ng/mL
- half-life (po, 85.3 mg, Part 1, Treatment D (test): 85.3 mg capsule contents in banana puree, oral, fasted, read-out: t1/2, Arithmetic Mean (converted)): 8.23 h
- half-life (po, 85.3 mg, Part 1, Treatment D (test): 85.3 mg capsule contents in banana puree, oral, fasted, read-out: t1/2, Geometric Mean (converted)): 8.1 h
- Tmax (po, 85.3 mg, Part 1, Treatment D (test): 85.3 mg capsule contents in banana puree, oral, fasted, read-out: tmax, Median): 1.03 h
- AUC(0-inf) (po, 90 mg, Part 1, Treatment A (reference): five 18 mg tablets (90 mg), oral, fasted, read-out: AUC0-inf, Arithmetic Mean): 630 ng·h/mL
- AUC(0-inf) (po, 90 mg, Part 1, Treatment A (reference): five 18 mg tablets (90 mg), oral, fasted, read-out: AUC0-inf, Geometric Mean): 562 ng·h/mL
- AUC(0-t) (po, 90 mg, Part 1, Treatment A (reference): five 18 mg tablets (90 mg), oral, fasted, read-out: AUC0-last, Arithmetic Mean): 620 ng·h/mL
- AUC(0-t) (po, 90 mg, Part 1, Treatment A (reference): five 18 mg tablets (90 mg), oral, fasted, read-out: AUC0-last, Geometric Mean): 552 ng·h/mL
- Cmax (po, 90 mg, Part 1, Treatment A (reference): five 18 mg tablets (90 mg), oral, fasted, read-out: Cmax, Arithmetic Mean): 132 ng/mL
- Cmax (po, 90 mg, Part 1, Treatment A (reference): five 18 mg tablets (90 mg), oral, fasted, read-out: Cmax, Geometric Mean): 114 ng/mL
- half-life (po, 90 mg, Part 1, Treatment A (reference): five 18 mg tablets (90 mg), oral, fasted, read-out: t1/2, Arithmetic Mean (converted)): 7.95 h
- half-life (po, 90 mg, Part 1, Treatment A (reference): five 18 mg tablets (90 mg), oral, fasted, read-out: t1/2, Geometric Mean (converted)): 7.83 h
- Tmax (po, 90 mg, Part 1, Treatment A (reference): five 18 mg tablets (90 mg), oral, fasted, read-out: tmax, Median): 0.782 h
- DNAUC0-inf, Geo LSM Ratio % [3]: 95.50%
- DNAUC0-last, Geo LSM Ratio % [3]: 95.50%
- DNCmax, Geo LSM Ratio % [3]: 85.90%
- DNAUC0-inf, Geo LSM Ratio % [4]: 99.50%
- DNAUC0-last, Geo LSM Ratio % [4]: 99.40%
- DNCmax, Geo LSM Ratio % [4]: 79.60%
- DNAUC0-inf, Geo LSM Ratio % [5]: 102.20%
- DNAUC0-last, Geo LSM Ratio % [5]: 102.00%
- DNCmax, Geo LSM Ratio % [5]: 85.60%
